Tests used:
[1] = test system: D. melanogaster control strains (CONTROL 1, CONTROL 2); assay: Topical application bioassay on adult females, control strains; format: in vivo, Drosophila melanogaster; settings: 50 ppm topical application, by 5 hours, 3 independent experiments
Procedure: (§1) For testing on adults by topical application of compounds, a method has been adapted from Dapkus (Drosophila Information Newsletter, Volume 1, January 1991; http://jfly.iam.u-tokyo.ac.jp/html/din/DIN_Vol_01—9101.txt). 0-3 day old adult D. melanogaster females are anaesthetised using CO2, and 0.4 uL of compound dissolved in acetone is applied to the abdomens of these females using a Hamilton pipette. After compound application, the flies are cultured under normal conditions for the required time intervals, and either visually assessed (as in Example 6.2) or harvested for chemical analysis (Example 7). Ideally the experiment is repeated on 3 separate ocassions
(§2) The effects of the compounds on the whole insects (larvae and adults) are monitored by visual assessment, daily or at a frequency as required. In one type of assessment, the mortality of the insects over time is scored. For example, if the adult test is used, the insects are monitored at time points that have been determined previously to be suitable for the experiment. The number of dead flies at each time point is scored.
(§3) Bioassays are carried out as described above. In one example, the insecticide Malathion was applied to 20 females at a dose of 50 ppm per time point to be assessed, according to the topical application method described above. […]

[2] = test system: D. melanogaster MUTANT strain (dhr96_hairpin / GAL4-arm, reduced dhr96 expression); assay: Topical application bioassay on adult females, dhr96 knockdown mutant strain; format: in vivo, Drosophila melanogaster; settings: 50 ppm topical application, at 5 hours, 3 independent experiments
Procedure: as §1, §2, §3

## CCOC(=O)CC(SP(=S)(OC)OC)C(=O)OCC (centres unmarked) [Malathion]
[1]
  percentage mortality: ≥ 95%
[2]
  mortality: no or significantly reduced mortality
